#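 Five compound concentrations were applied to cells in 96-well plates for 48 hours; endpoints were derived by simple linear interpolation of the resulting dose-response curve. GI50 is the concentration that inhibits growth by half. TGI: total growth inhibition.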
# What was measured:
# Test in all cases: DTP human tumour cell line panel, 48 h
# 786-0 renal = test system: 786-0 renal
# A498 renal = test system: A498 renal
# A549 NSCLC = test system: A549 NSCLC
# ACHN renal = test system: ACHN renal
# BT-549 breast = test system: BT-549 breast
# CAKI-1 renal = test system: CAKI-1 renal
# CCRF-CEM leukemia = test system: CCRF-CEM leukemia
# COLO 205 colon = test system: COLO 205 colon
# DU-145 prostate = test system: DU-145 prostate
# EKVX NSCLC = test system: EKVX NSCLC
# HCC-2998 colon = test system: HCC-2998 colon
# HCT-116 colon = test system: HCT-116 colon
# HCT-15 colon = test system: HCT-15 colon
# HL-60(TB) leukemia = test system: HL-60(TB) leukemia
# HOP-62 NSCLC = test system: HOP-62 NSCLC
# HOP-92 NSCLC = test system: HOP-92 NSCLC
# HS 578T breast = test system: HS 578T breast
# HT29 colon = test system: HT29 colon
# IGROV1 ovarian = test system: IGROV1 ovarian
# K-562 leukemia = test system: K-562 leukemia
# KM12 colon = test system: KM12 colon
# LOX IMVI melanoma = test system: LOX IMVI melanoma
# M14 melanoma = test system: M14 melanoma
# MALME-3M melanoma = test system: MALME-3M melanoma
# MCF7 breast = test system: MCF7 breast
# MDA-MB-231 breast = test system: MDA-MB-231 breast
# MDA-MB-435 = test system: MDA-MB-435
# MDA-MB-468 breast = test system: MDA-MB-468 breast
# MOLT-4 leukemia = test system: MOLT-4 leukemia
# NCI-H226 lung = test system: NCI-H226 lung
# NCI-H23 lung = test system: NCI-H23 lung
# NCI-H460 lung = test system: NCI-H460 lung
# NCI-H522 lung = test system: NCI-H522 lung
# NCI/ADR-RES ovarian = test system: NCI/ADR-RES ovarian
# OVCAR-3 ovarian = test system: OVCAR-3 ovarian
# OVCAR-4 ovarian = test system: OVCAR-4 ovarian
# OVCAR-5 ovarian = test system: OVCAR-5 ovarian
# OVCAR-8 ovarian = test system: OVCAR-8 ovarian
# PC-3 prostate = test system: PC-3 prostate
# RPMI-8226 leukemia = test system: RPMI-8226 leukemia
# RXF 393 renal = test system: RXF 393 renal
# SF-268 CNS = test system: SF-268 CNS
# SF-295 CNS = test system: SF-295 CNS
# SF-539 CNS = test system: SF-539 CNS
# SK-MEL-2 melanoma = test system: SK-MEL-2 melanoma
# SK-MEL-28 melanoma = test system: SK-MEL-28 melanoma
# SK-MEL-5 melanoma = test system: SK-MEL-5 melanoma
# SK-OV-3 ovarian = test system: SK-OV-3 ovarian
# SN12C renal = test system: SN12C renal
# SNB-19 CNS = test system: SNB-19 CNS
# SNB-75 CNS = test system: SNB-75 CNS
# SR leukemia = test system: SR leukemia
# SW-620 colon = test system: SW-620 colon
# T-47D breast = test system: T-47D breast
# TK-10 renal = test system: TK-10 renal
# U251 CNS = test system: U251 CNS
# UACC-257 melanoma = test system: UACC-257 melanoma
# UACC-62 melanoma = test system: UACC-62 melanoma
# UO-31 renal = test system: UO-31 renal
smiles,measurement,setting,value
O=C(Nc1ccc(OCc2ccc(F)cc2)cc1)Nc1ccc(Cl)c(C(F)(F)F)c1,GI50,786-0 renal,3.12 µM
same,TGI,786-0 renal,11.9 µM
same,GI50,A498 renal,2.16 µM
same,TGI,A498 renal,6.69 µM
same,GI50,A549 NSCLC,2.83 µM
same,TGI,A549 NSCLC,12.1 µM
same,GI50,ACHN renal,3.21 µM
same,TGI,ACHN renal,11 µM
same,GI50,BT-549 breast,2.08 µM
same,TGI,BT-549 breast,6.1 µM
same,GI50,CAKI-1 renal,2.56 µM
same,TGI,CAKI-1 renal,9.1 µM
same,GI50,CCRF-CEM leukemia,3.01 µM
same,TGI,CCRF-CEM leukemia,11.3 µM
same,GI50,COLO 205 colon,1.82 µM
same,TGI,COLO 205 colon,3.37 µM
same,GI50,DU-145 prostate,3.96 µM
same,TGI,DU-145 prostate,14.3 µM
same,GI50,EKVX NSCLC,2.56 µM
same,TGI,EKVX NSCLC,8.33 µM
same,GI50,HCC-2998 colon,3.08 µM
same,TGI,HCC-2998 colon,11.2 µM
same,GI50,HCT-116 colon,3.11 µM
same,TGI,HCT-116 colon,10.4 µM
same,GI50,HCT-15 colon,2.75 µM
same,TGI,HCT-15 colon,11 µM
same,GI50,HL-60(TB) leukemia,2.7 µM
same,TGI,HL-60(TB) leukemia,7.29 µM
same,GI50,HOP-62 NSCLC,3.03 µM
same,TGI,HOP-62 NSCLC,11.4 µM
same,GI50,HOP-92 NSCLC,1.88 µM
same,TGI,HOP-92 NSCLC,5.78 µM
same,GI50,HS 578T breast,2.88 µM
same,TGI,HS 578T breast,8.28 µM
same,GI50,HT29 colon,3.33 µM
same,TGI,HT29 colon,14.5 µM
same,GI50,IGROV1 ovarian,4.45 µM
same,TGI,IGROV1 ovarian,16.2 µM
same,GI50,K-562 leukemia,3.02 µM
same,TGI,K-562 leukemia,> 100 µM
same,GI50,KM12 colon,2.86 µM
same,TGI,KM12 colon,8.39 µM
same,GI50,LOX IMVI melanoma,2.79 µM
same,TGI,LOX IMVI melanoma,9.64 µM
same,GI50,M14 melanoma,2.79 µM
same,TGI,M14 melanoma,10.4 µM
same,GI50,MALME-3M melanoma,2.07 µM
same,TGI,MALME-3M melanoma,5.78 µM
same,GI50,MCF7 breast,2.25 µM
same,TGI,MCF7 breast,8.25 µM
same,GI50,MDA-MB-231 breast,2.46 µM
same,TGI,MDA-MB-231 breast,5.84 µM
same,GI50,MDA-MB-435,2.15 µM
same,TGI,MDA-MB-435,4.9 µM
same,GI50,MDA-MB-468 breast,1.85 µM
same,TGI,MDA-MB-468 breast,4.71 µM
same,GI50,MOLT-4 leukemia,2.74 µM
same,TGI,MOLT-4 leukemia,13.8 µM
same,GI50,NCI-H226 lung,2.46 µM
same,TGI,NCI-H226 lung,7.87 µM
same,GI50,NCI-H23 lung,2.38 µM
same,TGI,NCI-H23 lung,7.17 µM
same,GI50,NCI-H460 lung,2.51 µM
same,TGI,NCI-H460 lung,6.68 µM
same,GI50,NCI-H522 lung,3.03 µM
same,TGI,NCI-H522 lung,12.3 µM
same,GI50,NCI/ADR-RES ovarian,2.4 µM
same,TGI,NCI/ADR-RES ovarian,8.36 µM
same,GI50,OVCAR-3 ovarian,3.11 µM
same,TGI,OVCAR-3 ovarian,10.6 µM
same,GI50,OVCAR-4 ovarian,2.89 µM
same,TGI,OVCAR-4 ovarian,10.3 µM
same,GI50,OVCAR-5 ovarian,3.24 µM
same,TGI,OVCAR-5 ovarian,12.2 µM
same,GI50,OVCAR-8 ovarian,3.52 µM
same,TGI,OVCAR-8 ovarian,13.9 µM
same,GI50,PC-3 prostate,2.21 µM
same,TGI,PC-3 prostate,10.7 µM
same,GI50,RPMI-8226 leukemia,2.77 µM
same,TGI,RPMI-8226 leukemia,21.8 µM
same,GI50,RXF 393 renal,2.57 µM
same,TGI,RXF 393 renal,7.32 µM
same,GI50,SF-268 CNS,3.37 µM
same,TGI,SF-268 CNS,12.1 µM
same,GI50,SF-295 CNS,1.89 µM
same,TGI,SF-295 CNS,4.82 µM
same,GI50,SF-539 CNS,3.13 µM
same,TGI,SF-539 CNS,10.1 µM
same,GI50,SK-MEL-2 melanoma,2.51 µM
same,TGI,SK-MEL-2 melanoma,7.15 µM
same,GI50,SK-MEL-28 melanoma,3.62 µM
same,TGI,SK-MEL-28 melanoma,12.7 µM
same,GI50,SK-MEL-5 melanoma,1.68 µM
same,TGI,SK-MEL-5 melanoma,3.07 µM
same,GI50,SK-OV-3 ovarian,2.28 µM
same,TGI,SK-OV-3 ovarian,7.28 µM
same,GI50,SN12C renal,2.88 µM
same,TGI,SN12C renal,10.3 µM
same,GI50,SNB-19 CNS,3.22 µM
same,TGI,SNB-19 CNS,11.9 µM
same,GI50,SNB-75 CNS,1.33 µM
same,TGI,SNB-75 CNS,6.2 µM
same,GI50,SR leukemia,2.85 µM
same,TGI,SR leukemia,12.6 µM
same,GI50,SW-620 colon,3.31 µM
same,TGI,SW-620 colon,11.6 µM
same,GI50,T-47D breast,2.46 µM
same,TGI,T-47D breast,10.1 µM
same,GI50,TK-10 renal,3.83 µM
same,TGI,TK-10 renal,14.4 µM
same,GI50,U251 CNS,2.74 µM
same,TGI,U251 CNS,10.8 µM
same,GI50,UACC-257 melanoma,2.2 µM
same,TGI,UACC-257 melanoma,6.68 µM
same,GI50,UACC-62 melanoma,2.25 µM
same,TGI,UACC-62 melanoma,7.75 µM
same,GI50,UO-31 renal,2.37 µM
same,TGI,UO-31 renal,10.1 µM

# Reference: PubChem BioAssay (NCI)
